Measured values from US11266145B2, “Compositions comprising protocatechuic acid and methods of use” (priority 2020, dated 2022).
Values joined by “and” are separate entries in the source; they are usually repeats but may differ in a detail not shown here. Equal values may be shown once.

Columns and labels:
[1] = test system: 2019 Novel Coronavirus, Isolate USA-WA1/2020 (SARS-CoV-2); assay: TCID50 test of SARS-CoV-2 recovered from PCA-coated test substrates (plastic, cloth, mesh), titrated on Vero E6 cells; type: cell-based; details: for log difference: versus virus control on substrate; for TCID50 Log10/mL: single replicates
Method: The Test Article (TA) used for this study was Protocatechuic Acid (PCA). The TA was received as an off-white powder. The PCA solution was prepared to be 30% PCA w/v in Ethanol. The PCA was prepared in 5 g increments to pre-warmed 50-60 mL ethanol until dissolved for a total of 30 g PCA in the solution. Additional ethanol was then added volumetrically to be equivalent to 100 mL.
The Test Substrates (TS) were a Plastic-type material sourced from a clear plastic laboratory bottle (Corning 431731 Octagonal bottle, 150 mL), cloth (the top layer of a N95 mask [3M 8210]), and a Sponsor-provided wire mesh to serve as a substrate for the TA. All test substrates were cut to approximately 1″×1″ in size. The test substrates were submerged into the PCA solution and dried horizontally to allow for even coating. After the substrate was thoroughly dried, the test substrate was re-submerged into the PCA solution for an additional coating.
The Test Virus used for this study was 2019 Novel Coronavirus, Isolate USA-WA1/2020 (SARS-CoV-2). The virus was stored at approximately […] prior to use. The multiplicity of infection (MOI) was 0.01 TCID50/cell.
The Cell Culture used for the TCID50 test was African Green Monkey Kidney Cells (Vero E6 cells) that were maintained in Dulbecco's […] with 10% fetal calf serum (DMEM-2). All growth media contained heat-inactivated fetal calf serum and antibiotics.
The test design is shown below in Table 1.
The Test Substrate was coated with PCA as described above. The test substrates was treated with PCA twice and allowed to fully dry overnight. In general, the time from the first coat to the next day's virus exposure was approximately 24 hours.
The treated Test Substrate plus TA was placed into a sterile 6 well cell culture plate and approximately 100 μL total of a ≤1×10^6 TCID50/mL SARS-CoV-2 virus was such that 50 μL of virus was layered on each sides of the treated test substrates. This was the procedure used for the initial Day 1 experiment.
For the confirmatory test, in an attempt to increase the recorded titer of the controls, the treated Test Substrate plus TA was placed into a sterile 6 well cell culture plate and the same amount of virus was layered onto both sides of the test substrate. However, an addition 50 μL of DMEM was added to each side to reduce the inactivation of the virus due to desiccation. Additionally, a glass coverslip was also added to help mitigate against evaporation.
After application of the virus, the virus was contact with the Test substrates for approximately 10 minutes (Groups 1, 2, and 3, Control groups 7, 8, and 9), 60 minutes (Groups 4, 5, and 6, Control Groups 10, 11, and 12). Each substrate per time per test article was performed in duplicate.
A cell culture-only control was included to indicate that cells without any TA or virus remain healthy throughout the assay. Virus-only controls without substrate was added for each timepoint to verify that the assay was performing as expected.
After the incubation time, the treated substrate was washed with 1 mL of cell culture media (DMEM-2) for approximately 5-10 minutes within the 6 well cell culture plate and the glass cover slip removed if necessary. This was the equivalent to a 10-fold dilution. The plate was gently stirred via an orbital shaker to enhance the recovery of the virus.
For the TCID50, the cell culture media (DMEM-2) used to wash the Test Substrate was serially diluted 10 fold and transferred into respective wells of a 96-well plate which contained a monolayer of African Green Monkey Kidney Cells (Vero E6 cells) for titration. The TCID50 assay was performed non-GLP according to IITRI Standard Operating Procedures for the assay. The TCID50 titers was calculated using the method of Reed-Meunch.

[2] = test system: SARS CoV-2 virus; assay: Second laboratory coupon test: virus dried on PCA-coated coupons (stainless steel, K95 mask, plastic), recovered and titrated on Vero E6 cells by CPE; type: cell-based; parameters: : unit not given here; details: for Average Log10 TCID50 / Average TCID50: 3 replicates; for  / Log10 TCID50 / TCID50: single replicates; for TCID50: virus dried 45 minutes-1 h
Method: The second laboratory utilized test coupons made of solid stainless steel, plastic and K95 mask were coated in 30% w/v PCA in 70% ethanol. Each coupon was dipped in PCA, allowed to dry, dipped again and allowed to dry with the opposite side of the coupon facing up. Once dry, 200 ul virus was added to each coupon and allowed to dry (45 minutes-1 h drying time). Virus was recovered by adding 2 ml DMEM/F12 media and washing the coupon, without scraping so as not to dislodge PCA crystals. A yellow color change in the media was observed indicating acidification of the media upon addition to the PA-coated coupon. The recovered virus was added to empty 96 well plates and diluted 1:10 down the plate. This was then added to Vero E6 cells that had grown to ˜70% confluence. Cytotoxicity controls without virus and recovery controls without PCA were also done in the same manner. After addition to the cells, plates were read at day 4 for the presence of cytopathic effect (CPE) due to viral infection of cells. Note that cytotoxicity and CPE cannot be differentiated in this assay, thus any dead cells are marked as positive.
Cytotoxicity was seen up to 1:100 dilution for the K95, and 1:10 for the stainless steel and plastic coupons. […] The SS=stainless steel, K95=K95 mask and P=plastic. +PCA means coupons coated with PCA. No PCA (e.g. SS-1) indicates virus recovery controls with no PCA coating that had virus dried and recovered.

[3] = cited from earlier work
[4] = in vivo; cited from earlier work
[5] = confirmatory run (Day 2), PCA on cloth, 10 min
[6] = confirmatory run (Day 2), PCA on cloth, 60 min
[7] = confirmatory run (Day 2), PCA on mesh, 10 min
[8] = confirmatory run (Day 2), PCA on mesh, 60 min
[9] = confirmatory run (Day 2), PCA on plastic, 10 min
[10] = confirmatory run (Day 2), PCA on plastic, 60 min
[11] = initial run (Day 1), PCA on cloth, 60 min incubation
[12] = initial run (Day 1), PCA on mesh, 60 min incubation
[13] = initial run (Day 1), PCA on plastic, 10 min incubation
[14] = initial run (Day 1), PCA on plastic, 60 min incubation
[15] = K95 mask coupon coated with PCA versus uncoated coupon
[16] = K95 mask coupon coated with PCA
[17] = plastic coupon coated with PCA versus uncoated coupon
[18] = stainless steel coupon coated with PCA versus uncoated coupon
[19] = stainless steel coupon coated with PCA

Compound: O=C(O)c1ccc(O)c(O)c1 [PCA, Protocatechuic acid]
- Log average [1, 5]: 4.25 TCID50 Log10/mL
- log difference [1, 5]: −1.13 log
- Log average [1, 6]: 2.75 TCID50 Log10/mL
- log difference [1, 6]: −2.38 log
- Log average [1, 7]: 4.63 TCID50 Log10/mL
- log difference [1, 7]: −1.13 log
- Log average [1, 8]: 4.38 TCID50 Log10/mL
- log difference [1, 8]: −0.88 log
- Log average [1, 9]: 4.38 TCID50 Log10/mL
- log difference [1, 9]: −1.13 log
- Log average [1, 10]: 3.63 TCID50 Log10/mL
- log difference [1, 10]: −1.50 log
- TCID50 Log10/mL ([1]; confirmatory run (Day 2, extra DMEM and coverslip), PCA on cloth, 10 min): 4.25 TCID50 Log10/mL
- TCID50 Log10/mL ([1]; confirmatory run (Day 2, extra DMEM and coverslip), PCA on cloth, 60 min): 2.00 TCID50 Log10/mL and 3.50 TCID50 Log10/mL
- TCID50 Log10/mL ([1]; confirmatory run (Day 2, extra DMEM and coverslip), PCA on mesh, 10 min): 4.75 TCID50 Log10/mL and 4.50 TCID50 Log10/mL
- TCID50 Log10/mL ([1]; confirmatory run (Day 2, extra DMEM and coverslip), PCA on mesh, 60 min): 4.50 TCID50 Log10/mL and 4.25 TCID50 Log10/mL
- TCID50 Log10/mL ([1]; confirmatory run (Day 2, extra DMEM and coverslip), PCA on plastic, 10 min): 4.25 TCID50 Log10/mL and 4.50 TCID50 Log10/mL
- TCID50 Log10/mL ([1]; confirmatory run (Day 2, extra DMEM and coverslip), PCA on plastic, 60 min): 3.50 TCID50 Log10/mL and 3.75 TCID50 Log10/mL
- virucidal effect on the SARS CoV2 virus ([1]; in 10 minutes, virus droplet on PCA coating, aqueous environment): virucidal effect
- TCID50 Log10/mL ([1]; initial run (Day 1), PCA on cloth (N95 top layer), 10 min incubation): 2.75 TCID50 Log10/mL
- log difference ([1]; initial run (Day 1), PCA on cloth, 10 min): −1.25 log
- Log average ([1]; initial run (Day 1), PCA on cloth, 10 min incubation): 2.75 TCID50 Log10/mL
- log difference ([1]; initial run (Day 1), PCA on cloth, 60 min): −1.00 log
- Log average [1, 11]: 2.75 TCID50 Log10/mL
- TCID50 Log10/mL [1, 11]: 2.50 TCID50 Log10/mL and 3.00 TCID50 Log10/mL
- log difference ([1]; initial run (Day 1), PCA on mesh, 10 min): −0.25 log
- Log average ([1]; initial run (Day 1), PCA on mesh, 10 min incubation): 3.38 TCID50 Log10/mL
- log difference ([1]; initial run (Day 1), PCA on mesh, 60 min): −2.00 log
- Log average [1, 12]: 1.50 TCID50 Log10/mL
- TCID50 Log10/mL [1, 12]: 1.00 TCID50 Log10/mL and 2.00 TCID50 Log10/mL
- log difference ([1]; initial run (Day 1), PCA on plastic, 10 min): −0.63 log
- Log average [1, 13]: 3.75 TCID50 Log10/mL
- TCID50 Log10/mL [1, 13]: 3.75 TCID50 Log10/mL
- log difference ([1]; initial run (Day 1), PCA on plastic, 60 min): −1.13 log
- Log average [1, 14]: 2.88 TCID50 Log10/mL
- TCID50 Log10/mL [1, 14]: 3.25 TCID50 Log10/mL and 2.50 TCID50 Log10/mL
- TCID50 Log10/mL ([1]; initial run (Day 1), PCA on wire mesh, 10 min incubation): 3.50 TCID50 Log10/mL and 3.25 TCID50 Log10/mL
- Log Reduction to Virus Controls [2, 15]: 2.45
- Percent Log Reduction [2, 15]: 99.65%
- Average Log10 TCID50 [2, 16]: 2.10
- Average TCID50 [2, 16]: 182.4589
-  [2, 16]: 0.03162 and 0.05012 and 0.3162
- Log10 TCID50 [2, 16]: 2.50 and 2.30 and 1.50
- TCID50 [2, 16]: 316.2278 and 199.5262 and 31.62
- Log Reduction to Virus Controls [2, 17]: 3.94
- Percent Log Reduction [2, 17]: 99.99%
- Average Log10 TCID50 ([2]; plastic coupon coated with PCA): 1.91
- Average TCID50 ([2]; plastic coupon coated with PCA): 88
-  ([2]; plastic coupon coated with PCA): 0.1995 and 0.07943 and 0.1136
- Log10 TCID50 ([2]; plastic coupon coated with PCA): 1.70 and 2.10 and 1.94
- TCID50 ([2]; plastic coupon coated with PCA): 50.12 and 125.8925 and 87.99
- Log Reduction to Virus Controls [2, 18]: 2.93
- Percent Log Reduction [2, 18]: 99.88%
- Average Log10 TCID50 [2, 19]: 2.37
- Average TCID50 [2, 19]: 298.9493
-  [2, 19]: 0.01995 and 0.1259 and 0.03162
- Log10 TCID50 [2, 19]: 2.70 and 1.90 and 2.50
- TCID50 [2, 19]: 501.1872 and 79.43 and 316.2278
- solubility in water [3]: approximately 10 mg/ml
- LD50 [4]: 800 mg/kg
